In ChEMBL document CHEMBL5674872, “JMJD3 aids in reprogramming of bone marrow progenitor cells to hepatic phenotype through epigenetic activation of hepatic transcription factors” (PLoS One, 2017):
Activity calls are given as the source filed them. The rule behind the calls is not given here.

What was measured:
Conditions in all cases: time 14.0 day
Lin-BM = test: Inhibition of JMJD3 expression in Bl6/J female eGFP-expressing mouse Lin-BM cells at 100 nM incubated for 14 days by immuno-cytochemistry analysis; assay type: functional, cell-based
[1] = molecular target: Lysine-specific demethylase 6B (Mus musculus) (UniProt Q5NCY0); test: Inhibition of JMJD3 expression in Bl6/J female eGFP-expressing mouse Lin-BM cells assessed as reduction in hepatic differentiation at 100 nM incubated for 14 days by immuno-cytochemistry analysis; assay type: cell-based
[2] = molecular target: Lysine-specific demethylase 6B (Mus musculus) (UniProt Q5NCY0); test: Inhibition of JMJD3 expression in Bl6/J female eGFP-expressing mouse Lin-BM cells assessed as H3K27me3 enrichments level at promoters of HNF4-alpha at 100 nM incubated for 14 days by ChIP-qPCR method; assay type: cell-based
[3] = molecular target: Lysine-specific demethylase 6B (Mus musculus) (UniProt Q5NCY0); test: Inhibition of JMJD3 expression in Bl6/J female eGFP-expressing mouse Lin-BM cells assessed as H3K27me3 enrichments level at promoters of HNF3-alpha at 100 nM incubated for 14 days by ChIP-qPCR method; assay type: cell-based
[4] = molecular target: Lysine-specific demethylase 6B (Mus musculus) (UniProt Q5NCY0); test: Inhibition of JMJD3 expression in Bl6/J female eGFP-expressing mouse Lin-BM cells assessed as H3K27me3 enrichments level at promoters of HNF3-beta at 100 nM incubated for 14 days by ChIP-qPCR method; assay type: cell-based
[5] = molecular target: Lysine-specific demethylase 6B (Mus musculus) (UniProt Q5NCY0); test: Inhibition of JMJD3 expression in Bl6/J female eGFP-expressing mouse Lin-BM cells assessed as H3K27me3 enrichments level at promoters of HNF1-alpha at 100 nM incubated for 14 days by ChIP-qPCR method; assay type: cell-based
[6] = molecular target: Lysine-specific demethylase 6B (Mus musculus) (UniProt Q5NCY0); test: Inhibition of JMJD3 expression in Bl6/J female eGFP-expressing mouse Lin-BM cells assessed as H3K27me3 enrichments level at promoters of CEBP-alpha at 100 nM incubated for 14 days by ChIP-qPCR method; assay type: cell-based
[7] = molecular target: Lysine-specific demethylase 6B (Mus musculus) (UniProt Q5NCY0); test: Inhibition of JMJD3 expression in Bl6/J female eGFP-expressing mouse Lin-BM cells assessed as H3K27me3 enrichments level at promoters of GATA4 at 100 nM incubated for 14 days by ChIP-qPCR method; assay type: cell-based
[8] = molecular target: Lysine-specific demethylase 6B (Mus musculus) (UniProt Q5NCY0); test: Inhibition of JMJD3 expression in Bl6/J female eGFP-expressing mouse Lin-BM cells assessed as prevention of loss of H3K27me3 chromatin mark at 100 nM incubated for 14 days by immuno-cytochemical analysis; assay type: cell-based

Sequence of Lysine-specific demethylase 6B (Mus musculus) (Q5NCY0 whole entry): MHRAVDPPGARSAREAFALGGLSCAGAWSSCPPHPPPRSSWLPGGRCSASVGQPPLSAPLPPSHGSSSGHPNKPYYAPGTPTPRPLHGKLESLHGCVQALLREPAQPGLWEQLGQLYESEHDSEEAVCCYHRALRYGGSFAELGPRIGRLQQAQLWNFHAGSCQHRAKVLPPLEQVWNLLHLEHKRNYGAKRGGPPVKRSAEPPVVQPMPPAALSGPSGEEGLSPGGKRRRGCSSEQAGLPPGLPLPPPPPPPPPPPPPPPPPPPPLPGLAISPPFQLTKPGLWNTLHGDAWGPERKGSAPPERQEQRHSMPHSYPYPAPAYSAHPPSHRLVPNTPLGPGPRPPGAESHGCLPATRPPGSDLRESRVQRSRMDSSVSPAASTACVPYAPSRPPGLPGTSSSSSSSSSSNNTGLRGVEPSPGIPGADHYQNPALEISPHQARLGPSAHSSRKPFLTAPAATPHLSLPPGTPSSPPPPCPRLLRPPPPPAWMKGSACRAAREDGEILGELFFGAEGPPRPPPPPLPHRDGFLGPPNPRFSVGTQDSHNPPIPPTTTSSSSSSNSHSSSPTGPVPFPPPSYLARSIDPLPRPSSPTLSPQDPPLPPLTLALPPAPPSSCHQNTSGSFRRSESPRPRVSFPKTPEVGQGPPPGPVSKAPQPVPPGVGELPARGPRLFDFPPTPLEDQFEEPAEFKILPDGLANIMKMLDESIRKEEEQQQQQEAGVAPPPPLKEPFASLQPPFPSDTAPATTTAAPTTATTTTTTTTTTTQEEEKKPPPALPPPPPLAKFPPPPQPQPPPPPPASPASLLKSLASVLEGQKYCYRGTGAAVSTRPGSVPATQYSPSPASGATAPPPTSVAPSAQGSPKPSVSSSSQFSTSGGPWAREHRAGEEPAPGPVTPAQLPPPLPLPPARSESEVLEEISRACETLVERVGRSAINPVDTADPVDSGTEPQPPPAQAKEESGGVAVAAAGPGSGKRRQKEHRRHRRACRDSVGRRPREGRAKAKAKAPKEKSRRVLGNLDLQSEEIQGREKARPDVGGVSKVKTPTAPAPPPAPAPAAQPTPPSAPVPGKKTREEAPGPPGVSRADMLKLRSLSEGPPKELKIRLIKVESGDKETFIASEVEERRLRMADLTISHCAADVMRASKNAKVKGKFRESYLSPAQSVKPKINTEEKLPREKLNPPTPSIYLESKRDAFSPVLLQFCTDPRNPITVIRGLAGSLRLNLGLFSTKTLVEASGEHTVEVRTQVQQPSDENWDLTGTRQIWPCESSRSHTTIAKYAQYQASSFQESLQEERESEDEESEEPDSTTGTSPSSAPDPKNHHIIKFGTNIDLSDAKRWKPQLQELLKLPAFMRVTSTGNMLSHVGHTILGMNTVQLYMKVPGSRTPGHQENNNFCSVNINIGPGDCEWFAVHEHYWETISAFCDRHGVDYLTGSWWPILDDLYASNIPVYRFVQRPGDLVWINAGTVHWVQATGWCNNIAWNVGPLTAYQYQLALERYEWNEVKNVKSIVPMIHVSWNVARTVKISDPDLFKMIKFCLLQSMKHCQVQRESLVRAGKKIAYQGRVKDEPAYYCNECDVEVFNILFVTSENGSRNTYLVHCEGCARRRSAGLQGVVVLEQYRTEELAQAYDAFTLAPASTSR

inhibition [1]: Active | inhibition [2]: Active | inhibition [3]: Active | inhibition [4]: Active | inhibition [5]: Active | inhibition [6]: Active | inhibition [7]: Active | inhibition [8]: Active
SMILES: CCOC(=O)CCNc1cc(N2CCc3ccccc3CC2)nc(-c2ccccn2)n1
inhibition (Lin-BM): Active
